Experiment [1] concerns the target T1, Receptor tyrosine-protein kinase erbB-2 (Homo sapiens, UniProt P04626). Briefly: Inhibitory activity tested against protein kinase HER-2.
Experiment [2] has as its target T2, Epidermal growth factor receptor (Homo sapiens, UniProt P00533). Description: Inhibitory activity against epidermal growth factor receptor (EGFR).
In experiment [3] the target is T1, Receptor tyrosine-protein kinase erbB-2. Description: Inhibition of HER-2 ErbB2 receptor.
The target of experiment [4] is T2, Epidermal growth factor receptor. Description: Inhibition of epidermal growth factor receptor (EGFR).

T1 sequence (P04626 whole entry): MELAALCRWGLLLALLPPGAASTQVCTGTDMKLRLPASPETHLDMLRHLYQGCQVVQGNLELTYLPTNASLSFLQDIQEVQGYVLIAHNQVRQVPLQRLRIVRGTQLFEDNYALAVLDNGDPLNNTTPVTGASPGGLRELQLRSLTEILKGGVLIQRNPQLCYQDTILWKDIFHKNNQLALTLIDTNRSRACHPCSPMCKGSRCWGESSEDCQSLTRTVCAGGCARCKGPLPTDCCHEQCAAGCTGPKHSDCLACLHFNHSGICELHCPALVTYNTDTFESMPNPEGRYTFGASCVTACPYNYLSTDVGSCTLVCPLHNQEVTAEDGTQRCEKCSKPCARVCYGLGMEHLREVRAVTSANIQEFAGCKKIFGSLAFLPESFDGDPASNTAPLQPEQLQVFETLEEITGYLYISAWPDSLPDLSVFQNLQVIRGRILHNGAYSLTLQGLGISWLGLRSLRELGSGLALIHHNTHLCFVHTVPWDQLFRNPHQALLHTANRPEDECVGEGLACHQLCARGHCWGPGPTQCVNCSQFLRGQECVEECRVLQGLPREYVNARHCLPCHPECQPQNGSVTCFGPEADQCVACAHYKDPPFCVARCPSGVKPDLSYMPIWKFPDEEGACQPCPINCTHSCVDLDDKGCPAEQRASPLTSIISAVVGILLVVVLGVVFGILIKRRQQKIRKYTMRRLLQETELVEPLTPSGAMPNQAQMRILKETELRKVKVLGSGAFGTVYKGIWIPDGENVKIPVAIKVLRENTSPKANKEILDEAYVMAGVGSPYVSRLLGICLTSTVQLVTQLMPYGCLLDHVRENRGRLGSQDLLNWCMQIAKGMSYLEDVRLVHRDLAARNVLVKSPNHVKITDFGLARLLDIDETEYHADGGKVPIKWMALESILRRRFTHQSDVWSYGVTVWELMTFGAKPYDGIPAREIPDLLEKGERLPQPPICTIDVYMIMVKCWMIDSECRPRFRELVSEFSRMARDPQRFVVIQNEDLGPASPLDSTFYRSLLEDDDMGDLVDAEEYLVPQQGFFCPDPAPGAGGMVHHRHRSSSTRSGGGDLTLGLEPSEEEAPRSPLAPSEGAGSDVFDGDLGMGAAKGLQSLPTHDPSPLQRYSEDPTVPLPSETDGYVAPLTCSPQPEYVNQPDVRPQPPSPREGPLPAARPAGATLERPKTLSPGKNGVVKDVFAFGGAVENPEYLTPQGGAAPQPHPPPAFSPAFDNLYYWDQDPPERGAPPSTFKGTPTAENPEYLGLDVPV
T2 sequence (P00533 whole entry): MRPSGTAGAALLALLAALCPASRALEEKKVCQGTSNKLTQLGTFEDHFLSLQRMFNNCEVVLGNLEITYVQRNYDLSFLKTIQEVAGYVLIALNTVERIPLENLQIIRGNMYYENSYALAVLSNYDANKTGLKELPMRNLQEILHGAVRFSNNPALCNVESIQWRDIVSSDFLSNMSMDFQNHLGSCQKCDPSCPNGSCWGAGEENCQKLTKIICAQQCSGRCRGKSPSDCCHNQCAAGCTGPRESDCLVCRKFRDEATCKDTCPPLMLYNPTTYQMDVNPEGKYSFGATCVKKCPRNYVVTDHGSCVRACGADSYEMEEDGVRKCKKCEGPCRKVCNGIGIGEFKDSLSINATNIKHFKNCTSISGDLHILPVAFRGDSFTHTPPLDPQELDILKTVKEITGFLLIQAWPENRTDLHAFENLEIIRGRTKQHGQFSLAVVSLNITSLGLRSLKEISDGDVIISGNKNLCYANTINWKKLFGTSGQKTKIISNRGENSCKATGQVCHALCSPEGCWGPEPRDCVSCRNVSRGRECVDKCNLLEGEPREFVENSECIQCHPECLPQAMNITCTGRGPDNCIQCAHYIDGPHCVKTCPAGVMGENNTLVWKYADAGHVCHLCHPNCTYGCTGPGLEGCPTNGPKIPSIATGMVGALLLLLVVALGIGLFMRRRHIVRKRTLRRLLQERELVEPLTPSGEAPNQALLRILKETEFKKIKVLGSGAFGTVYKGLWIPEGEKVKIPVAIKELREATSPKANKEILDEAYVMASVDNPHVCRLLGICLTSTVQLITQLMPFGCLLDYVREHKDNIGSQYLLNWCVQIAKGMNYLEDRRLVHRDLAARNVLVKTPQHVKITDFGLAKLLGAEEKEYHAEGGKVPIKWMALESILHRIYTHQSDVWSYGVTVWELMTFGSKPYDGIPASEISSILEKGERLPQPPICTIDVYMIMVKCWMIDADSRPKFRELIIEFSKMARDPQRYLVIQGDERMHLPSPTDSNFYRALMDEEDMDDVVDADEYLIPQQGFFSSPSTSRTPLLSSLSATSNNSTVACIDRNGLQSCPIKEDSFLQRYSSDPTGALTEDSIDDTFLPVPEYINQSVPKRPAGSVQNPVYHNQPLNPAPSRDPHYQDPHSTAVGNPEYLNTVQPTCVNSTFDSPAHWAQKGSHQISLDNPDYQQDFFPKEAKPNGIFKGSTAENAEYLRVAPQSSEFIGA

For orientation: IC50 means the midpoint of a concentration-inhibition curve. Regarding `COc1cc(/C=C(\C#N)C(N)=O)cc(CSc2nc3cc(Cl)ccc3s2)c1O`, the 50% inhibitory concentration (IC50) was 15.1 µM in experiment [1] and 83.2 µM in experiment [2].

The compound `COc1cc(/C=C(\C#N)C(N)=O)cc(CSc2ccccc2NC(C)=O)c1O` gave an IC50 in experiment [1] of 3.31 µM.

`COc1cc(/C=C(\C#N)C(N)=O)cc(SCCCC(=O)O)c1O`: the IC50 in experiment [2] is 47.9 µM.

For the compound `COc1cc(/C=C(\C#N)C(N)=O)cc(SCCC(=O)O)c1O`, the IC50 in experiment [3] is 91.2 µM.

Consider `COc1cc(C=C(C#N)C#N)cc(SCC(=O)O)c1O`, for which the IC50 was 4.57 µM in experiment [1] and 53.7 µM in experiment [2].

Turning to `Cc1cc(C=C(C#N)C#N)cc(O)c1O`, the half-maximal inhibitory concentration (IC50) in experiment [1] was 58.9 µM.

Regarding `COc1cc(/C=C(\C#N)C(N)=O)cc(CSc2ccccc2)c1O`, inhibition in experiment [1] was half-maximal at 0.129 µM (IC50). This IC50 is about 460-fold lower than that of the compound before.

Consider `COc1cc(/C=C(\C#N)C(N)=O)cc(CSc2nc3ccccc3o2)c1O`, for which the IC50 in experiment [1] was 1.51 µM.

`COc1cc(C=C(C#N)C#N)cc(CSc2ccccc2C(=O)O)c1O` had a half-inhibitory concentration (IC50) in experiment [1] of 10 µM.

Compound `COc1cc(/C=C(\C#N)C(N)=O)cc(CSc2ccccn2)c1O` had a half-inhibitory concentration (IC50) in experiment [1] of 0.708 µM.

On to `COc1cc(/C=C(\C#N)C(N)=O)cc(CSc2ccccc2C(=O)O)c1O`, for which, in experiment [1], the concentration for half-maximal inhibition (IC50) is 0.447 µM.

`COc1cc(C=C(C#N)C#N)cc(C)c1O` gave an IC50 in experiment [1] of 112 µM.

In experiment [1], `COc1cc(C=C(C#N)C#N)cc(CSc2ccccc2)c1O` had an IC50 of 2.51 µM.

As to `CC(C)(C)Oc1cc(/C=C(\C#N)C(=N)S)cc(C(C)(C)C)c1O`, the values for the half-maximal inhibitory concentration (IC50) in experiment [1] and in experiment [2] were 1 µM and 501 µM, respectively.

In the case of `COc1cc(/C=C(/C#N)C(N)=O)cc(CSCc2ccc(Cl)cc2)c1O`, the half-inhibitory concentration (IC50) in experiment [1] is 2 µM; in experiment [2], 15.8 µM.

As to `Cc1cc(C)c(NC(=O)/C(C#N)=C/c2ccc(O)c(O)c2)c(C)c1`, the IC50 was 20.9 µM in experiment [1] and 19.1 µM in experiment [2].

On to `COc1cc(/C=C(\C#N)C(N)=O)cc(CSc2cccc3ccccc23)c1O`, for which the half-maximal inhibitory concentration (IC50) is 4.57 µM in experiment [1] and 1.7 µM in experiment [2].

Turning to `N#C/C(=C\c1ccc(O)c(O)c1)C(=O)NCc1ccc(O)cc1`, the IC50 in experiment [1] was 2.88 µM; in experiment [2] it was 3.02 µM.

Consider `N#C/C(=C\c1ccc(O)c(O)c1)C(=O)NCCc1ccccc1`, for which, in experiment [2], the midpoint of inhibition, the IC50, lay at 0.617 µM.

Consider `COc1cc(/C=C(\C#N)C(N)=O)cc(CSCc2ccccc2Cl)c1O`, for which 0.251 µM corresponded to half-maximal inhibition in experiment [1] (IC50).

For `COc1cc(/C=C(\C#N)C(N)=O)cc(CSCc2ccccc2)c1O`, inhibition in experiment [1] was half-maximal at 10 µM (IC50).

The compound `COc1cc(/C=C(\C#N)C(N)=O)cc(CSc2nc3ccccc3[nH]2)c1O` gave an IC50 in experiment [1] of 6.17 µM.

Compound `COc1cc(/C=C(\C#N)C(N)=O)cc(CSc2ccc(C)cc2)c1O` showed a half-maximal inhibitory concentration (IC50) in experiment [1] of 1.66 µM.

On to `COc1cc(C=C(C#N)C#N)cc(CS(=O)(=O)c2ccc(C)cc2)c1O`, for which the midpoint of inhibition in experiment [1], the IC50, lay at 17.4 µM.

With `CCOc1ccc2sc(SCc3cc(/C=C(\C#N)C(N)=O)cc(OC)c3O)nc2c1`, the 50% inhibitory concentration (IC50) in experiment [4] is 166 µM.

With `N#C/C(=C\c1cc(O)c(O)c(CSCc2ccccc2)c1)C(N)=O`, the half-maximal inhibitory concentration (IC50) in experiment [1] is 1.02 µM.

For the compound `N#C/C(=C\c1ccc(O)c(O)c1)C(=O)NCCCCc1ccccc1`, in experiment [1], 501 µM corresponded to half-maximal inhibition (IC50).

`N#C/C(=C\c1ccc(O)c(O)c1)C(=O)c1ccc(F)cc1` showed a half-maximal inhibitory concentration (IC50) in experiment [1] of 12.9 µM.

Turning to `Cc1cc(C)c(C(=O)/C(C#N)=C/c2ccc(O)c(O)c2)c(C)c1`, in experiment [2], the concentration for half-maximal inhibition (IC50) is 19.1 µM. That is a double-digit micromolar value.

Compound `CCOC(=O)C(Cc1ccccc1)NC(=O)/C(C#N)=C/c1ccc(O)c(O)c1` (centres undefined) had a half-maximal inhibitory concentration (IC50) in experiment [1] of 331 µM.

Take `N#C/C(=C\c1ccc(O)c(O)c1)C(=O)c1ccc(O)c(O)c1`: half-maximal inhibition in experiment [1] (IC50) was put at 17 µM.

In turn, `COc1ccc(NC(=O)/C(C#N)=C/c2ccc(O)c(O)c2)c(OC)c1` had an IC50 in experiment [1] of 166 µM. Compared with the last compound, the IC50 is about 9.8-fold higher.

Values taken from ChEMBL document CHEMBL1136802, “Receptor-guided alignment-based comparative 3D-QSAR studies of benzylidene malonitrile tyrphostins as EGFR and HER-2 kinase inhibitors” (J Med Chem, 2003).
